# Assay results: US7776882B2, “2-amino-3,4-dihydro-quinoline derivatives useful as inhibitors of β-secretase (BACE)” (priority 2006, dated 2010)
# Molecular target: T1, β-secretase (BACE) (Homo sapiens, UniProt P56817)
# T1 construct: purchased Panvera
# Test: In Vitro BACE IC50 Assay, MCA-substrate (Example 13)
# Format: biochemical
# Conditions: 1 hour at room temperature
# Text: The following standards are reagents were used in this assay: Sodium Citrate trisodium salt dihydrate (Sigma), Citric Acid monohydrate (Merck), PEG8000 (Sigma), MCA-substrate (Bachem), β-secretase (BACE) (Panvera), 96-well black plate (Costar (Elscolab)), StatVal (Bachem). The standard assay buffer solution prepared and used in this assay is as follows: 0.05 M, pH 5.0 mixture of sodium citrate trisodium salt dihydrate (9.56 g), citric acid monohydrate (3.68 g) and PEG8000 (0.50 g). The MCA-substrate stock solution was prepared by mixing 10 mg MCA-substrate with 5 mL DMSO for a final solution concentration of 2.0 mg/mL. […]
# Briefly, the procedure for this BACE IC50 assay was as follows. […] Each well was mixed for a few seconds and the T0 measured with a Fluoroscan Ex320/Em405. The plates were then incubated for 1 hour at room temperature and the T60 measured with the Fluoroscan Ex 320 nm/Em 405 nm.
# The procedure for the blank (reference well) was as follows. […] The T0 was measured with the Fluoroscan Ex 320 nm/Em 405 nm, the plate was incubated for 1 hour at room temperature and the T60 was then measured with the Fluoroscan Ex 320 nm/Em 405 nm.
# The procedure for the positive control was as follows. […] The T0 was measured with the Fluoroscan Ex 320 nm/Em 405 nm, the plate was incubated for 1 hour at room temperature and the T60 was then measured with the Fluoroscan Ex 320 nm/Em 405 nm. […]
# T1 sequence (P56817 46-501): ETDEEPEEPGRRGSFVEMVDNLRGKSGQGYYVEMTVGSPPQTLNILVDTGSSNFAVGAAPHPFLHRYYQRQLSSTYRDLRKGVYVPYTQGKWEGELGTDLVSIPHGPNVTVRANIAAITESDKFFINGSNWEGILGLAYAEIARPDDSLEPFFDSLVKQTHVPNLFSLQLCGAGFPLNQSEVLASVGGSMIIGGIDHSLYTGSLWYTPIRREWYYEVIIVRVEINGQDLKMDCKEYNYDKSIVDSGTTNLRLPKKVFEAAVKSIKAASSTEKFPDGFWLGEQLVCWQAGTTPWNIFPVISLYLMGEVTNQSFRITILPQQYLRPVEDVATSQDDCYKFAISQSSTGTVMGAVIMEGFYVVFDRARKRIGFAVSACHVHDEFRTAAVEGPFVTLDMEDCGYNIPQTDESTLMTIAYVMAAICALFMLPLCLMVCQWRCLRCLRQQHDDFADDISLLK
row,IC50,SMILES
1,170 nM,CN(C(=O)CC[C@H]1Cc2cc(Oc3ccccc3)ccc2N=C1N)C1CCCCC1 [compound 102]
2,220 nM,CN(C(=O)CC[C@@H]1Cc2cc(Oc3ccccc3)ccc2N=C1N)C1CCCCC1 [compound 103]
